Where two headings read alike, the source gives them in different places. Starred links: 1 amine or outer side, 2 acyl side, 3 side chain; linkers in the order of their positions; H or OH if unused. Positions of bridges follow the written chain, without caps; N, C: chain ends. Non-standard residues stand in square brackets, D forms with d. Residues, ends and D or L forms follow the SMILES beside them. Chains are numbered I, II in the order given. Actinocin(9to1) = Cc1c2oc3c(C)ccc(C(=O)[*:1])c3nc-2c(C(=O)[*:2])c(N)c1=O; NMeV = CN[C@H](C(=O)O)C(C)C; Sar = CNCC(=O)O

This is an account of results in US20150141414A1, “Formulation of Stable Recombinant Alpha-Fetoprotein Conjugated with Anti-Tumor Substance in Target-Delivery System for Treatment of Cancer and Autoimmune Disease” (priority 2013, published 2015).

Data set [1] deals with frog. The following applies: intravenous injection; cited from earlier work.
Data set [2] has as its system mouse. Particulars: cited from earlier work.
Data set [3] has as its system pigeon. The following applies: intravenous injection; cited from earlier work.
For data set [4], the system named is cat. Particulars: cited from earlier work.
Data set [5] has as its system lymphocyte of an average healthy person. As to the kind of experiment: Dose-dependent survival of lymphocytes of a healthy person. It counts as cell-based. Particulars: Homo sapiens, read-out: 50% growth inhibition concentration. An excerpt: Each value depicted in FIGS. 1A and 1B is the mean of three determinations with coefficient of variation less than 20%.
The subject of data set [6] is rat. The following applies: cited from earlier work.
The test system of data set [7] is Hela cervical cancer cells. As to the kind of experiment: MTT cytotoxicity assay, Hela cervical cancer cells. The format is cell-based. Particulars: Homo sapiens, mean of three determinations, read-out: 50% growth inhibition concentration (1050). The procedure:
The cytotoxicity of dactinomycin incorporated in PLGA conjugated with rAFP was tested with Hela cervical cancer cells. It is recognized that the use of PLGA as the controlled release polymer system is particularly suitable for the intent of the present invention because PLGA is well known for its safety in clinic. The Hela cells were doused with both dactinomycin in bulk. MTT assay was then performed to quantify the inhibitory concentration. […] 1050 was calculated from the cell viability data as the drug concentration in which cell growth was inhibited by 50%.

As to `C[C@H]1O[C@@H](O[C@H]2[C@@H](O)C[C@H](O[C@H]3[C@@H](O)C[C@H](O[C@H]4CC[C@@]5(C)[C@H](CC[C@@H]6[C@@H]5CC[C@]5(C)[C@@H](C7=CC(=O)OC7)CC[C@]65O)C4)O[C@@H]3C)O[C@@H]2C)C[C@H](O)[C@@H]1O` [digitoxin], the LD50 intravenous in data set [1] is 0.73 mg/kg; in data set [2] (mouse, intravenous injection), 4.1 mg/kg; in data set [3] it was 0.32 mg/kg.
In the case of `C[C@]12CC[C@H](O)C[C@H]1CC[C@@H]1[C@@H]2CC[C@]2(C)[C@@H](c3ccc(=O)oc3)CC[C@]12O` [bufalin], the LD50 intravenous in data set [4] was 0.14 mg/kg; in data set [2] (mouse, intravenous) it was 0.74 mg/kg.
Take `Cc1c2oc3c(C)ccc(C(=O)N[C@@H]4C(=O)N[C@H](C(C)C)C(=O)N5CCC[C@H]5C(=O)N(C)CC(=O)N(C)[C@@H](C(C)C)C(=O)O[C@@H]4C)c3nc-2c(C(=O)N[C@@H]2C(=O)N[C@H](C(C)C)C(=O)N3CCC[C@H]3C(=O)N(C)CC(=O)N(C)[C@@H](C(C)C)C(=O)O[C@@H]2C)c(N)c1=O` [dactinomycin in bulk, Dactinomycin] (I: T[dV]P[Sar][NMeV] / II: T[dV]P[Sar][NMeV]; ester I:1-I:C, II:1-II:C; linker I:N-II:N via Actinocin(9to1)): the “lethal dose as multiple of maximum recommended daily human dose (body surface area basis)” value in data set [2] (mice, intravenous 700 mcg/kg) is given as 3.8 times; in data set [6] (rats, intravenous 500 mcg/kg), 5.4 times. Besides, the lethal intravenous dose is 0.7 mg/kg in data set [2] (mice, intravenous) and 0.5 mg/kg in data set [6] (rats, intravenous). The “oral LD50” value is 7.8 mg/kg in data set [2] (mouse, oral) and 7.2 mg/kg in data set [6] (rat, oral). Also, the IC50 in data set [5] turned out to be 23.8 nM; in data set [7], 1.7 nM.
`COc1cc2c(Nc3ccc(Br)cc3F)ncnc2cc1OCC1CCN(C)CC1` [vandetanib]: in data set [6] (rats, intravenous), the LD50 intravenous is reported as 17-41 mg/kg body weight.
For the compound `CN(Cc1cnc2nc(N)nc(N)c2n1)c1ccc(C(=O)N[C@@H](CCC(=O)O)C(=O)O)cc1` [methotrexate], the LD50 intravenous in data set [6] (rats, intravenous) was 14 mg/kg body weight.
